Experimental findings from ChEMBL document CHEMBL5370629, “Probing the Interactions of Thiazole Abietane Inhibitors with the Human Serine Hydrolases ABHD16A and ABHD12” (ACS Med Chem Lett, 2023) are described below.

The target of data set [1] is T1, Phosphatidylserine lipase ABHD16A (Mus musculus) (UniProt Q9Z1Q2).
T1 sequence (whole entry): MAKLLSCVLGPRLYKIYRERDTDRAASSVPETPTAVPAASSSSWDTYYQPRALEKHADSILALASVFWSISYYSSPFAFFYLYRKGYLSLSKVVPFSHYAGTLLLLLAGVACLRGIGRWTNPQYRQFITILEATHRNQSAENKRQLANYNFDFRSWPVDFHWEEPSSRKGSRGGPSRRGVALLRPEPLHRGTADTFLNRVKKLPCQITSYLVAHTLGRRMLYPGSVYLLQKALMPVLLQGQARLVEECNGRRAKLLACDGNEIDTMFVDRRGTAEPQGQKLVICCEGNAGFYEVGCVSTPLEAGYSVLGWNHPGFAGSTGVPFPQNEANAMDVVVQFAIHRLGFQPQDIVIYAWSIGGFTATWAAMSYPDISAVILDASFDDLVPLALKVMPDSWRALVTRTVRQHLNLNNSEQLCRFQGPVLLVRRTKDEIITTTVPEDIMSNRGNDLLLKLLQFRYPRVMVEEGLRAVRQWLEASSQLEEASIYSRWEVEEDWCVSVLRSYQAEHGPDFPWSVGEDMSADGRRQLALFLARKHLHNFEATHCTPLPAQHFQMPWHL
Put plainly: Inhibition of azido-fluorophosphonate probe binding to mouse ABHD16A expressed in HEK293T cells at 200 uM incubated for 1 hr followed by azido-fluorophosphonate addition and measured after 1 hr by fluorescent Western blotting analysis relative to control. Type of data set: cell-based. The settings on record: time 2.0 hrs.

The target in data set [2] is T2, Phosphatidylserine lipase ABHD16A (Homo sapiens) (UniProt O95870).
T2 sequence (whole entry): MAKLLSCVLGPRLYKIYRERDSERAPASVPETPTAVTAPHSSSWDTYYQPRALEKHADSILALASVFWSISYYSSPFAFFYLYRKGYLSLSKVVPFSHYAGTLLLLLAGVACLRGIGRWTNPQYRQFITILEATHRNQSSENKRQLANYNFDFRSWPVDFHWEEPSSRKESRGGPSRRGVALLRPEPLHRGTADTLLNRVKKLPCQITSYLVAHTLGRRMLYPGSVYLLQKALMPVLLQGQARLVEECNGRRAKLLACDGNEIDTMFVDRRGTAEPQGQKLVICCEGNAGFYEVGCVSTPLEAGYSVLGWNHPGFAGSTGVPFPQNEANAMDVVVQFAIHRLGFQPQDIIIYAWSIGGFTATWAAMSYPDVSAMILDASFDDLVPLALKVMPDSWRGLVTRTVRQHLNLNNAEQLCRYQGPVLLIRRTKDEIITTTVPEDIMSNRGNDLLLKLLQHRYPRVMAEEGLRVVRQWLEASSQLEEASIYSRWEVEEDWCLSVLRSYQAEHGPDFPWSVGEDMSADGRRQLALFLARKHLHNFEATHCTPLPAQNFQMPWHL
Put plainly: Inhibition of azido-fluorophosphonate probe binding to human ABHD16A expressed in HEK293T cells at 20 uM incubated for 1 hr followed by azido-fluorophosphonate addition and measured after 1 hr by fluorescent Western blotting analysis relative to control. The data set is classed as cell-based. Conditions: time 2.0 hrs; call rule not given here. Background: In western blotting, separated proteins are transferred to a membrane and probed.

Data set [3] has as its target T2, Phosphatidylserine lipase ABHD16A (Homo sapiens). The data set can be described thus: Inhibition of azido-fluorophosphonate probe binding to human ABHD16A expressed in HEK293T cells at 100 uM incubated for 1 hr followed by azido-fluorophosphonate addition and measured after 1 hr by fluorescent Western blotting analysis relative to control. The data set is classed as cell-based. The settings on record: time 2.0 hrs.

Data set [4] addresses T1, Phosphatidylserine lipase ABHD16A (Mus musculus). Put plainly: Inhibition of azido-fluorophosphonate probe binding to mouse ABHD16A expressed in HEK293T cells at 20 uM incubated for 1 hr followed by azido-fluorophosphonate addition and measured after 1 hr by fluorescent Western blotting analysis relative to control. The data set is classed as cell-based. Conditions: time 2.0 hrs.

The target in data set [5] is T3, Lysophosphatidylserine lipase ABHD12 (Homo sapiens, UniProt Q8N2K0).
T3 sequence (Q8N2K0 whole entry): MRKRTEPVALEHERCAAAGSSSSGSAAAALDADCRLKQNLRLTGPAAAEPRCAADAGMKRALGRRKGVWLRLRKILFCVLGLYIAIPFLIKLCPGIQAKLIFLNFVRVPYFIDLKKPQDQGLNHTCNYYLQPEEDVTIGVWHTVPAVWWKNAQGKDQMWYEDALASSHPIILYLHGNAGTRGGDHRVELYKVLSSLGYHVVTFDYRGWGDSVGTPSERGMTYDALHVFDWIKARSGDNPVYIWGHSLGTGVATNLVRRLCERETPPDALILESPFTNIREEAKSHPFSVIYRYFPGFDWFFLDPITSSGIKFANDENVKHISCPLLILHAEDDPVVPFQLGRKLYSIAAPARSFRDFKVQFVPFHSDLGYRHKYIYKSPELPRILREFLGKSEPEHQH
The data set can be described thus: Inhibition of azido-fluorophosphonate probe binding to human ABHD12 expressed in HEK293T cells at 20 to 100 uM incubated for 1 hr followed by azido-fluorophosphonate addition and measured after 1 hr by fluorescent Western blotting analysis. The data set is classed as toxicity, cell-based. The settings on record: 2 h, dose 20-100 µM.

Data set [6] addresses T1, Phosphatidylserine lipase ABHD16A (Mus musculus). The data set can be described thus: Inhibition of azido-fluorophosphonate probe binding to mouse ABHD16A expressed in HEK293T cells at 20 to 100 uM incubated for 1 hr followed by azido-fluorophosphonate addition and measured after 1 hr by fluorescent Western blotting analysis relative to control. Type of data set: cell-based. The settings on record: dose 20-100 µM, time 2.0 hrs.

The target in data set [7] is T4, ABHD12 (lysophosphatidylserine lipase) (Homo sapiens, UniProt Q8N2K0).
T4 sequence (Q8N2K0 whole entry): T3 sequence (Q8N2K0 whole entry)
The data set can be described thus: Inhibition of azido-fluorophosphonate probe binding to human ABHD12 expressed in HEK293T cells at 20 uM incubated for 1 hr followed by azido-fluorophosphonate addition and measured after 1 hr by fluorescent Western blotting analysis relative to control. Conditions: HEK293T cells that express human ABHD12, probe azido-fluorophosphonate. Type of data set: toxicity, cell-based.

In data set [8] the target is T4, ABHD12 (lysophosphatidylserine lipase). Put plainly: Inhibition of azido-fluorophosphonate probe binding to human ABHD12 expressed in HEK293T cells at 100 uM incubated for 1 hr followed by azido-fluorophosphonate addition and measured after 1 hr by fluorescent Western blotting analysis relative to control. The settings on record: HEK293T cells that express human ABHD12, probe azido-fluorophosphonate. The data set is classed as toxicity, cell-based.

In the case of `COC(=O)[C@]1(C)CCC[C@]2(C)c3cc(-c4csc(C)n4)c(C(C)C)cc3C(=O)C[C@@H]12`, the inhibition in data set [1] worked out at 73.2%; in data set [2], 32.2%; in data set [3], 55.1%.
Take `COC(=O)[C@]1(C)CCC[C@]2(C)c3cc(-c4csc(COC(C)=O)n4)c(C(C)C)cc3CC[C@@H]12`: the inhibition was 62.9% in data set [1] and 48.4% in data set [3].
As for `CC(C)c1cc2c(cc1-c1csc([C@H](C)O)n1)[C@@]1(C)CCC[C@@](C)(C(N)=O)[C@@H]1CC2`, the inhibition in data set [1] is 59.8%; in data set [3], 37.6%.
`CC(=O)c1nc(-c2cc3c(cc2C(C)C)CC[C@H]2[C@](C)(C(N)=O)CCC[C@]32C)cs1`: the inhibition in data set [1] came to 83.5%; in data set [2], 33.5%; in data set [3], 45.5%; in data set [4], 55.5%.
Turning to `CC(C)c1cc2c(cc1-c1csc([C@H](C)O)n1)[C@@]1(C)CCCC(C)(C)[C@@H]1CC2`, the “inhibition (INH)” value in data set [5] was “Not Active”. This compound gave an inhibition in data set [6] of 34.1%.
With `COC(=O)[C@]1(C)CCC[C@]2(C)c3cc(-c4csc([C@H](C)O)n4)c(C(C)C)cc3CC[C@@H]12`, the inhibition in data set [1] was found to be 66.4%; in data set [2] it was 35.7%; in data set [3], 48%. This compound also came in with an inhibition at 2 h, 20 µM in data set [7] of 54%. The compound also returned an inhibition at 2 h, 100 µM in data set [8] of 60.9%.

In general, inhibition refers to the share of the control response that was lost under treatment.
